Among the test systems are MCF7 breast; HOP-92 NSCLC; NCI-H226 lung; SNB-19 CNS; T-47D breast; COLO 205 colon; SF-268 CNS; PC-3 prostate; MDA-N; SW-620 colon; ACHN renal; OVCAR-4 ovarian; MALME-3M melanoma; EKVX NSCLC; UO-31 renal; UACC-257 melanoma.
Assay in all cases: NCI anticancer screen, dose series, 48 h

The values that follow come from PubChem BioAssay (NCI).

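Growth conditions: 96-well plates. Treatment: test compound, 48 hours, 5 concentrations. Analysis: linear interpolation between bracketing concentrations; unreached endpoints set to highest concentration. TGI is the concentration that stops growth completely.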

For the compound `COc1c(Cl)ccc(Cl)c1C(=O)NNC(=O)c1c(Cl)c(Cl)c(Cl)c(Cl)c1-c1nc2ccc(C(=O)c3ccccc3)cc2[nH]1`, the TGI in the assay with MCF7 breast, with HOP-92 NSCLC, in the assay on NCI-H226 lung, with SNB-19 CNS, with T-47D breast and in the assay with COLO 205 colon was greater than 100 µM throughout. Further, the TGI with SF-268 CNS, with PC-3 prostate, in the assay on MDA-N, in the assay on SW-620 colon, in the assay with ACHN renal and with OVCAR-4 ovarian was greater than 100 µM in each case. For the same compound, the TGI in the assay on MALME-3M melanoma, in the assay on EKVX NSCLC, with UO-31 renal and in the assay on UACC-257 melanoma was greater than 100 µM in each case.

Regarding `C[C@H](CCC1=NCCN1)[C@H]1CC[C@H]2[C@@H]3[C@H](O)C[C@@H]4C[C@H](O)CC[C@]4(C)[C@H]3CC[C@]12C`, the TGI in the assay with MCF7 breast stood at 28.5 µM; with HOP-92 NSCLC, 21.8 µM; in the assay with NCI-H226 lung, 30.2 µM; in the assay on SNB-19 CNS it was 26.1 µM; in the assay with T-47D breast, 31.3 µM; in the assay with COLO 205 colon, 21.1 µM. Further, the TGI stood at 26 µM in the assay with SF-268 CNS; 21 µM in the assay with PC-3 prostate; 32.7 µM in the assay with MDA-N; 30.1 µM in the assay on SW-620 colon; 30 µM in the assay on ACHN renal; 28.1 µM with OVCAR-4 ovarian. The TGI with MALME-3M melanoma turned out to be 29.2 µM; with EKVX NSCLC, 32.3 µM; in the assay on UO-31 renal, 27.8 µM; with UACC-257 melanoma it was 28.3 µM.
